Experimental data from patent US7763647B2, “Topical solution containing a chromane or chromene derivative” (Laboratories Expanscience, priority 2001, dated 2010).

How the values were obtained:
[1] = Tests of solubility of genistein in polyethylene glycols or their ethoxylated homologs (HPLC assay); conditions: for Genistein assayed (% by weight in the solution): room temperature, stirred 30 minutes
Protocol: Tests of Solubility of Genistein in Polyethylene Glycols or Their Ethoxylated Homologs Procedure:
The quantity of genistein used in powdered form is accurately weighed in a 250 ml beaker. A precise quantity of excipient is then added. The mixture is then vigorously stirred (mechanical stirring) at room temperature for 30 minutes. The product is then directly assayed according to the protocol described below.
The assay of genistein is carried out by reverse phase high-performance liquid chromatography (C18 stationary phase—acetic acid/acetonitrile mobile phase) and detection by UV spectrophotometry (absorption maximum of the compound).

[2] = system: actinic erythema induced by UVA+B irradiation; assay: Reduction of actinic erythema induced by UVA+B irradiation, double blind test with placebo, visual reading; type: in vivo, healthy volunteers; conditions: when solubilized beforehand in PEG 300
Protocol: The placebo (P1) and the active products (P2), (P3) and (P4) were thus used to carry out this test.
Several steps were followed: • Preliminary step: Evaluation of the individual Minimum Erythemal Dose (MEDi). • First step: Application of products P1 to P4 to a 35 cm^2 surface. The quantity applied is exactly 4 mg/cm^2. The zones for applying the products are modified by rotation from one volunteer to another. • Second step: Irradiation of the treated zones and of one untreated zone (control zone) fifteen minutes after application of the products, by positioning the MEDi at the third hole. • Third steps: Visual readings of the erythema 6 and 24 hours after the irradiation. a.) Choice of the Subjects […]
Beforehand, with the same apparatus, the individual MED of each subject was determined on the top of the back. […]
The irradiation times for the treated zones and for the untreated zone are determined so as to place the MEDi at the third hole.
The administered UV doses are calculated with the aid of a calibrated ROBERTSON-BERGER dosimeter equipped with a UVB reading head. The results are expressed directly as values read on the dosimeter and expressed as MED (1 MED=25 mJ/cm^2). […]
A numerical quantification corresponding to the degree of erythema is performed according to the following table: […]

[3] = excipient PEG 200, genistein used 12.0% by weight
[4] = excipient PEG 300, genistein used 8.0% by weight
[5] = excipient PEG 300, genistein used 10.0% by weight
[6] = excipient PEG 300, genistein used 12.0% by weight
[7] = excipient PEG 400, genistein used 12.0% by weight
[8] = excipient PEG 600, genistein used 12.0% by weight

## O=c1c(-c2ccc(O)cc2)coc2cc(O)cc(O)c12 [Genistein]
[1]; PEG 300
  Concentration at which genistein can be incorporated, in soluble form, into PEG 300: ~12 % by weight relative to the total weight of the solution
[1]; excipient Laureth 11 (oxyethylenated C12 alcohol), genistein used 12.0% by weight
  Genistein assayed (% by weight in the solution): 9.5 % by weight in the solution
[1]; excipient Laureth 11, genistein used 12.0% by weight
  Solubility: high
[1]; excipient Liponic EG1 (ethoxylated glycerol), genistein used 10.0% by weight
  Genistein assayed (% by weight in the solution): 9.1 % by weight in the solution
[1]; excipient Liponic EG1, genistein used 10.0% by weight
  Solubility: high
[1]; [3]
  Solubility: high
  Genistein assayed (% by weight in the solution): 10.9 % by weight in the solution
[1]; [4]
  Solubility: high
  Genistein assayed (% by weight in the solution): 7.6 % by weight in the solution
[1]; [5]
  Solubility: high
  Genistein assayed (% by weight in the solution): 9.3 % by weight in the solution
[1]; [6]
  Solubility: high
  Genistein assayed (% by weight in the solution): 11.2 % by weight in the solution
[1]; [7]
  Solubility: high
  Genistein assayed (% by weight in the solution): 10.1 % by weight in the solution
[1]; excipient PEG400 dilaurate (fatty diester of PEG), genistein used 12.0% by weight
  Genistein assayed (% by weight in the solution): 9.5 % by weight in the solution
[1]; excipient PEG400 dilaurate, genistein used 12.0% by weight
  Solubility: high
[1]; [8]
  Solubility: high
  Genistein assayed (% by weight in the solution): 10.7 % by weight in the solution
[2]
  Antierythemal activity of genistein: increased
